Values of other authors in patent US20180177700A1, “HAIR REMOVAL COMPOSITIONS AND METHODS” (priority 2016, published 2018).
Structures can show the parent of a compound that is named as a salt.

Assays:
body hair = conditions: all different types of body hair (scalp, facial, axillary, pubic, leg)
[1] = topical, 24 weeks, over 594 patients, versus placebo

Row | SMILES | hair loss induced (body hair) [%] | time after drug application at which hair growth returned to baseline (transient inhibition) (unwanted facial hair; after the drug application) | patients with "Clear" physician reported change in unwanted facial hair (unwanted facial hair; [1]) [%] | patients with "Improved" physician reported change in unwanted facial hair (unwanted facial hair; [1]) [%] | patients with "Marked" physician reported change in unwanted facial hair (unwanted facial hair; [1]) [%]
1 | CS(=O)(=O)OCCCCOS(C)(=O)=O [busulfan] | ~100 | – | – | – | –
2 | NCCCC(N)(C(=O)O)C(F)F (centres unmarked) [eflornithine hydrochloride] | – | eight | 5 | 26 | 27
